Results taken from US11767310B2, “Nicotinamide RIPK1 inhibitors” (AbbVie Inc., priority 2021, dated 2023).
Like-named read-outs stand apart in the source and are kept apart here.

Experiments:
Assay in all cases: Kinase binding screen
Conditions in all cases: read-out: Percent Control at 100 nM Compound Concentration
MINK = MINK (Homo sapiens (Human), UniProt Q8N4C8)
CTK = CTK (Homo sapiens (Human), UniProt P42679)
MAP4K2 = MAP4K2 (Homo sapiens (Human), UniProt Q12851)
PIK3CA(H1047L) = PIK3CA(H1047L) (Homo sapiens (Human), UniProt P42336, H1047L)
CDK8 = CDK8 (Homo sapiens (Human), UniProt P49336)
ERK3 = ERK3 (Homo sapiens (Human), UniProt Q16659)
LATS2 = LATS2 (Homo sapiens (Human), UniProt Q9NRM7)
AKT2 = AKT2 (Homo sapiens (Human), UniProt P31751)
MAP3K3 = MAP3K3 (Homo sapiens (Human), UniProt Q99759)
MLCK = MLCK (Homo sapiens (Human), UniProt Q32MK0)
RIPK1 = RIPK1 (Homo sapiens (Human), UniProt Q13546)
CDK2 = CDK2 (Homo sapiens (Human), UniProt P24941)
IKK-alpha = IKK-alpha (Homo sapiens (Human), UniProt O15111)
TGFBR1 = TGFBR1 (Homo sapiens (Human), UniProt P36897)
PKN2 = PKN2 (Homo sapiens (Human), UniProt Q16513)
MUSK = MUSK (Homo sapiens (Human), UniProt O15146)
RAF1 = RAF1 (Homo sapiens (Human), UniProt P04049)
PLK2 = PLK2 (Homo sapiens (Human), UniProt Q9NYY3)
[1] = target: JAK3(JH1domain-catalytic) (Homo sapiens (Human), UniProt P52333)
[2] = target: ABL1(Q252H)-nonphosphorylated (Homo sapiens (Human), UniProt P00519, Q252H)
SBK1 = SBK1 (Homo sapiens (Human), UniProt Q52WX2)
GSK3B = GSK3B (Homo sapiens (Human), UniProt P49841)
[3] = target: RSK2(Kin.Dom.2-C-terminal) (Homo sapiens (Human), UniProt P51812)
CLK4 = CLK4 (Homo sapiens (Human), UniProt Q9HAZ1)
[4] = target: ABL1(F317L)-phosphorylated (Homo sapiens (Human), UniProt P00519, F317L)
NLK = NLK (Homo sapiens (Human), UniProt Q9UBE8)
AAK1 = AAK1 (Homo sapiens (Human), UniProt Q2M2I8)
[5] = target: JAK1(JH2domain-pseudokinase) (Homo sapiens (Human), UniProt P23458)

AAK1, sequence (Q2M2I8 whole entry): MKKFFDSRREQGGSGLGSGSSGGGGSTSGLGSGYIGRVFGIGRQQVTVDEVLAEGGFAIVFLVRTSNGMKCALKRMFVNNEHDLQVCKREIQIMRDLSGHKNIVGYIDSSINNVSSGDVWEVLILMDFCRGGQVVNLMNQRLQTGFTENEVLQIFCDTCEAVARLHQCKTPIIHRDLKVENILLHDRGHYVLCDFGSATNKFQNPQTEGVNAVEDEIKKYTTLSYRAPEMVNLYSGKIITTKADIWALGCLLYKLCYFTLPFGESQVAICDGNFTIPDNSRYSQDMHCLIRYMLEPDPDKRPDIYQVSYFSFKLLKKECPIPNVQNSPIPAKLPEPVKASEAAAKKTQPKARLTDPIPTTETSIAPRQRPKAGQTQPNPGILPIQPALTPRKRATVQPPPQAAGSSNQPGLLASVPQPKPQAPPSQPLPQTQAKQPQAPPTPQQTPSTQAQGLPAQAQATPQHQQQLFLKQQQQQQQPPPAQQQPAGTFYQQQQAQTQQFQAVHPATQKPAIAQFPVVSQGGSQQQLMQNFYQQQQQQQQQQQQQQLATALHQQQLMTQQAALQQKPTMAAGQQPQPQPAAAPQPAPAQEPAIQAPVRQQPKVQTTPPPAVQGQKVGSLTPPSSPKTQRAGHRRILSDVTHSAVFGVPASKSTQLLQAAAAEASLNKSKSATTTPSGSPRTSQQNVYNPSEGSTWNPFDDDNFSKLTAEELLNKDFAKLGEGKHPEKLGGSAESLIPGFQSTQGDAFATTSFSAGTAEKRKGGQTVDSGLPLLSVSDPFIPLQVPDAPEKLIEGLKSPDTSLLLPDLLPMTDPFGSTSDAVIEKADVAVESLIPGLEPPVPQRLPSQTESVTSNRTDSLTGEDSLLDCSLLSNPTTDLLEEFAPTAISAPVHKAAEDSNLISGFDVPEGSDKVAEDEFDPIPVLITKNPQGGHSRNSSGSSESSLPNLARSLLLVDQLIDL
CTK, sequence (P42679 whole entry): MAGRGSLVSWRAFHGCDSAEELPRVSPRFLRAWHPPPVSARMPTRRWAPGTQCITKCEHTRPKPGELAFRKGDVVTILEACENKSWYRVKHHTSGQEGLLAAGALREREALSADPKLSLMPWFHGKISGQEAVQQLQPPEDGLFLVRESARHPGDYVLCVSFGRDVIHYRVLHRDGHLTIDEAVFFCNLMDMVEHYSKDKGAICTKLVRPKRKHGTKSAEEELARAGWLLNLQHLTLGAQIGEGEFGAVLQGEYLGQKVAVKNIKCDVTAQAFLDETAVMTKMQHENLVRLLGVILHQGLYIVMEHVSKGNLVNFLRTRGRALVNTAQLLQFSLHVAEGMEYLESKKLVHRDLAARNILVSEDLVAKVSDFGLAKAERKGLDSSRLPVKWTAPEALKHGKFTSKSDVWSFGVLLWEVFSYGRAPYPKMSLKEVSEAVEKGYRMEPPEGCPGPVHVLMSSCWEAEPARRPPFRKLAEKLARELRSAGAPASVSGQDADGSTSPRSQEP
MINK, sequence (Q8N4C8 whole entry): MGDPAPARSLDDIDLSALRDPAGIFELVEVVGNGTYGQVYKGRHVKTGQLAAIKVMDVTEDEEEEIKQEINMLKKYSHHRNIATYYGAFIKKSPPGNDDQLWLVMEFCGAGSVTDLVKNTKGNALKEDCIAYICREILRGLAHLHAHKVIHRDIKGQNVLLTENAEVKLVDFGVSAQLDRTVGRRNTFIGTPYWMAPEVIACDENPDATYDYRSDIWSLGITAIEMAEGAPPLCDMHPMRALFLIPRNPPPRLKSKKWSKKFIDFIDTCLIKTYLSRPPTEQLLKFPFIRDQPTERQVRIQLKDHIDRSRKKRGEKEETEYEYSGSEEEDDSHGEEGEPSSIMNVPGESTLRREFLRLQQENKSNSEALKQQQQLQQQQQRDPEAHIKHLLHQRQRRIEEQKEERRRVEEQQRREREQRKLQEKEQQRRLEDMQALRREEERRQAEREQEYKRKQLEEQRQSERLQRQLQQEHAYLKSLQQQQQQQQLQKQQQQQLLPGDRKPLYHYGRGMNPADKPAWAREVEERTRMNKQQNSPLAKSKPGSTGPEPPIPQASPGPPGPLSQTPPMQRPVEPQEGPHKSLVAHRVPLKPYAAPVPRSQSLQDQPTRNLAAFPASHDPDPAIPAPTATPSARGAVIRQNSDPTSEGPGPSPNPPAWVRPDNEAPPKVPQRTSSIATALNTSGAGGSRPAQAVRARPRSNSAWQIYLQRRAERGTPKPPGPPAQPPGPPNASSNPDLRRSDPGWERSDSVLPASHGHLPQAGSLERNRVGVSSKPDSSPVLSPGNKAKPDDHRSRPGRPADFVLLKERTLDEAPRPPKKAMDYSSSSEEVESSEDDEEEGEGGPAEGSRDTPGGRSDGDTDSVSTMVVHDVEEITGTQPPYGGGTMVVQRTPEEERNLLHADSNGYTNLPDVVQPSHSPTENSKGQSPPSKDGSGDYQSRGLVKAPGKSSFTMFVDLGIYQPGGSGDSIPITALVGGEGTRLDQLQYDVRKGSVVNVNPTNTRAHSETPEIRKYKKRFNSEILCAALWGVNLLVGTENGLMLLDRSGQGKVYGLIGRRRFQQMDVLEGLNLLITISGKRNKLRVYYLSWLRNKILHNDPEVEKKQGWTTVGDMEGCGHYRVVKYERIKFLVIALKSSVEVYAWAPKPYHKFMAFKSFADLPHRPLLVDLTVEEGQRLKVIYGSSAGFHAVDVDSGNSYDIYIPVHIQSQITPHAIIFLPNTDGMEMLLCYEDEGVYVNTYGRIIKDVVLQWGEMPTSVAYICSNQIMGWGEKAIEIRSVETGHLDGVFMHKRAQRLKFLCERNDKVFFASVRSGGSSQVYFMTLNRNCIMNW
GSK3B, sequence (P49841 whole entry): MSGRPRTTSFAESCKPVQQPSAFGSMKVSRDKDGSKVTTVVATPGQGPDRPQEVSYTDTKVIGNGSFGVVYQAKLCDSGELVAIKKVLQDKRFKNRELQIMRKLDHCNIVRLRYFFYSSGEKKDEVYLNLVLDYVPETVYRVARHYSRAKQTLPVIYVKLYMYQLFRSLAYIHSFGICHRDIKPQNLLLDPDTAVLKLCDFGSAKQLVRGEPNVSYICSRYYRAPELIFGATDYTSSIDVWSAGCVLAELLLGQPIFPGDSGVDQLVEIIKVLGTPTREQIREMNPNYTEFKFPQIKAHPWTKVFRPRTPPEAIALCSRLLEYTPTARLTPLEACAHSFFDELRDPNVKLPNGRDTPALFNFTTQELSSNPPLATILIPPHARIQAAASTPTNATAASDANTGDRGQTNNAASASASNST
PKN2, sequence (Q16513 whole entry): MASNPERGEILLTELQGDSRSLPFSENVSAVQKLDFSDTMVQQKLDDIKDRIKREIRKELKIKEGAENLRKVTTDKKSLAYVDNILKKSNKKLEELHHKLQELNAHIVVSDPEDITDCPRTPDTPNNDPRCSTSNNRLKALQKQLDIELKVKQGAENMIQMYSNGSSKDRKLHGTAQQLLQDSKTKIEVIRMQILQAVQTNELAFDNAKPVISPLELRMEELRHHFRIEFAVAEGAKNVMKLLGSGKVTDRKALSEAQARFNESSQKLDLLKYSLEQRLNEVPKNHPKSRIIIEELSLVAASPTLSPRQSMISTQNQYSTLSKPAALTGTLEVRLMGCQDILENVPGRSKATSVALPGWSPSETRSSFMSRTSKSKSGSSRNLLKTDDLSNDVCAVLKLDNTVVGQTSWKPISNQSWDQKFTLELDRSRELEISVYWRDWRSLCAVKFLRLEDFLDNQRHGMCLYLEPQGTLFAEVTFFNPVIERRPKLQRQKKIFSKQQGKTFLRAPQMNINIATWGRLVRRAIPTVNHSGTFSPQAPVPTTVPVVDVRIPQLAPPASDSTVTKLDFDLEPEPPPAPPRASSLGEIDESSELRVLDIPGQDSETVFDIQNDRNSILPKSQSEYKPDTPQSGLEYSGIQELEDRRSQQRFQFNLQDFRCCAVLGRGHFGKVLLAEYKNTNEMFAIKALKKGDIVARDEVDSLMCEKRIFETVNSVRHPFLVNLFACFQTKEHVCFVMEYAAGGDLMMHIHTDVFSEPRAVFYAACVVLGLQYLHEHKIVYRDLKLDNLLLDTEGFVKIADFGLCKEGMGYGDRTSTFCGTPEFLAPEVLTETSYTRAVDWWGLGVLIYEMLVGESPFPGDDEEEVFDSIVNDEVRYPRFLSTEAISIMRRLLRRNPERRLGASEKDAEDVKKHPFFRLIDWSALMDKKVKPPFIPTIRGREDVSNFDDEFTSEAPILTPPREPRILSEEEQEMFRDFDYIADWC
RAF1, sequence (P04049 whole entry): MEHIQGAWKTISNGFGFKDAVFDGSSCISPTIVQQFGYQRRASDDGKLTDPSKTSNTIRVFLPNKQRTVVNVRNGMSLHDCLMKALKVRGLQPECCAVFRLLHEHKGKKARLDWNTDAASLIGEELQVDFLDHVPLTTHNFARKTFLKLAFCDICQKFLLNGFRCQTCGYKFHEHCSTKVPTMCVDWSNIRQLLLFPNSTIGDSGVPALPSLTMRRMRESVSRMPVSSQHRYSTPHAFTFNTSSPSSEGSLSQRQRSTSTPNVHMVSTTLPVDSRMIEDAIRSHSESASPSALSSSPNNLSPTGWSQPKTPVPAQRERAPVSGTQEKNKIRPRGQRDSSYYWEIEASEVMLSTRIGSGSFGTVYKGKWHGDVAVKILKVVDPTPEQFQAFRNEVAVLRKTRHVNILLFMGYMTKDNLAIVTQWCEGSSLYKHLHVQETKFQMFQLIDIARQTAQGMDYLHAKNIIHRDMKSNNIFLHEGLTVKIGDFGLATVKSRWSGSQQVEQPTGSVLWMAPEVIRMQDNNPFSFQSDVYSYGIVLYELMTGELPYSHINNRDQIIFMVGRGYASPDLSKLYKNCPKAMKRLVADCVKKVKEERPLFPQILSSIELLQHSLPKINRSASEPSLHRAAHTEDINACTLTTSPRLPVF

CN(C[C@@H](O)Cc1ccccc1)C(=O)c1cncc(C#Cc2cnn(C(F)F)c2)c1 [Example 2, (S)-5-((1-(difluoromethyl)-1H-pyrazol-4-yl)ethynyl)-N-(2-hydroxy-3-phenylpropyl)-N-methylnicotinamide]
remaining activity at 0.1 µM (MINK; MINK): 100% | remaining activity at 0.1 µM (CTK; CTK): 100% | remaining activity at 0.1 µM (MAP4K2; MAP4K2): 88% | remaining activity at 0.1 µM (PIK3CA(H1047L); PIK3CA(H1047L)): 85% | remaining activity at 0.1 µM (CDK8; CDK8): 10% | remaining activity at 0.1 µM (ERK3; ERK3): 100% | remaining activity at 0.1 µM (LATS2; LATS2): 98% | remaining activity at 0.1 µM (AKT2; AKT2): 99% | remaining activity at 0.1 µM (MAP3K3; MAP3K3): 96% | remaining activity at 0.1 µM (MLCK; MLCK): 100% | remaining activity at 0.1 µM (RIPK1; RIPK1): 26% | remaining activity at 0.1 µM (CDK2; CDK2): 100% | remaining activity at 0.1 µM (IKK-alpha; IKK-alpha): 100% | remaining activity at 0.1 µM (TGFBR1; TGFBR1): 100% | remaining activity at 0.1 µM (PKN2; PKN2): 97% | remaining activity at 0.1 µM (MUSK; MUSK): 100% | remaining activity at 0.1 µM (RAF1; RAF1): 100% | remaining activity at 0.1 µM (PLK2; PLK2): 98% | remaining activity at 0.1 µM ([1]; JAK3(JH1domain-catalytic)): 100% | remaining activity at 0.1 µM ([2]; ABL1(Q252H)-nonphosphorylated): 92% | remaining activity at 0.1 µM (SBK1; SBK1): 97% | remaining activity at 0.1 µM (GSK3B; GSK3B): 100% | remaining activity at 0.1 µM ([3]; RSK2(Kin.Dom.2-C-terminal)): 100% | remaining activity at 0.1 µM (CLK4; CLK4): 92% | remaining activity at 0.1 µM ([4]; ABL1(F317L)-phosphorylated): 82% | remaining activity at 0.1 µM (NLK; NLK): 100% | remaining activity at 0.1 µM (AAK1; AAK1): 96% | remaining activity at 0.1 µM ([5]; JAK1(JH2domain-pseudokinase)): 93%

CN(C[C@H](Cc1ccccc1)OP(=O)(O)O)C(=O)c1cncc(C#Cc2cnn(C(F)F)c2)c1 [Example 19, (S)-1-(5-((1-(difluoromethyl)-1H-pyrazol-4-yl)ethynyl)-N-methylnicotinamido)-3-phenylpropan-2-yl dihydrogen phosphate]
remaining activity at 0.1 µM (MINK): 100% | remaining activity at 0.1 µM (CTK): 90% | remaining activity at 0.1 µM (MAP4K2): 83% | remaining activity at 0.1 µM (PIK3CA(H1047L)): 71% | remaining activity at 0.1 µM (CDK8): 98% | remaining activity at 0.1 µM (ERK3): 100% | remaining activity at 0.1 µM (LATS2): 100% | remaining activity at 0.1 µM (AKT2): 90% | remaining activity at 0.1 µM (MAP3K3): 92% | remaining activity at 0.1 µM (MLCK): 100% | remaining activity at 0.1 µM (RIPK1): 91% | remaining activity at 0.1 µM (CDK2): 100% | remaining activity at 0.1 µM (IKK-alpha): 99% | remaining activity at 0.1 µM (TGFBR1): 100% | remaining activity at 0.1 µM (PKN2): 100% | remaining activity at 0.1 µM (MUSK): 100% | remaining activity at 0.1 µM (RAF1): 100% | remaining activity at 0.1 µM (PLK2): 91% | remaining activity at 0.1 µM [1]: 100% | remaining activity at 0.1 µM [2]: 100% | remaining activity at 0.1 µM (SBK1): 95% | remaining activity at 0.1 µM (GSK3B): 98% | remaining activity at 0.1 µM [3]: 100% | remaining activity at 0.1 µM (CLK4): 100% | remaining activity at 0.1 µM [4]: 88% | remaining activity at 0.1 µM (NLK): 100% | remaining activity at 0.1 µM (AAK1): 100% | remaining activity at 0.1 µM [5]: 86%
